Results reported in paper PMC9030691, “Toxicokinetics of β-Amanitin in Mice and In Vitro Drug–Drug Interaction Potential” (Pharmaceutics, 2022).
Like-named read-outs stand apart in the source and are kept apart here.

Columns and labels:
HEK293 control cells = test: Uptake of amanitins into HEK293 control cells; format: in vitro ADME; conditions: 50 μM amanitin, 5 min, 37 °C, HBSS, LC-HRMS, n = 3
Description: HEK293 cells overexpressing OCT2, MATE2-K, OAT1, OAT3, OATP1B1, and OATP1B3 transporters and HEK293-control cells were maintained in a humidified atmosphere of 5% CO2 at 37 °C in DMEM supplemented with 10% FBS and 5 mM non-essential amino acids. In the case of HEK293-OATP1B1, -OATP1B3, and MATE2-K cells, 2 mM sodium butyrate was added to the culture medium to enhance transport activity. Cells were seeded at 2 × 10^5 cells/well in poly-D-lysine-coated 24-well plates. After 24 h, the growth medium was discarded, and attached cells were washed with HBSS and preincubated for 20 min in HBSS at 37 °C. Stock solutions of α- and β-amanitin and representative inhibitors of transporters were diluted in HBSS to make the final concentration: cimetidine 1 mM (for OCT2), cimetidine 100 μM (for MATE2-K), probenecid 100 μM (for OAT1 and OAT3), and rifampin 100 μM (for OATP1B1 and OATP1B3). Uptake of 50 μM α- and β-amanitin was measured in the absence and presence of representative inhibitors for 5 min at 37 °C. Plates were placed immediately on ice, and cells were then washed twice with 1 mL of ice-cold HBSS. Residual HBSS was removed thoroughly from the plates. Subsequently, 150 μL of 80% methanol containing IS was added to each sample well, and the cell plates were shaken gently for 20 min at 4 °C. The remaining steps were the same as described for plasma sample preparation.

[1] = Toxicokinetics after oral administration in mice; format: in vivo; conditions: male ICR mice; for bioavailability / Tmax / Cmax / half-life / AUC(0-inf) / AUC(0-t): mouse; for bioavailability / Tmax / Cmax / AUC(0-inf) / AUC(0-t): plasma; for bioavailability: (dose normalized AUCPO/dose normalized AUCIV) × 100, mean ± SD, read-out: F (oral bioavailability); for Tmax: median with range in parentheses; for Cmax: fasted; for Cmax / AUC(0-inf) / AUC(0-t): LC-HRMS; for Cmax / half-life / AUC(0-inf) / AUC(0-t): mean ± SD; for half-life: plasma elimination half-life; for AUC(0-inf) / AUC(0-t): non-compartmental
Description: The Institutional Animal Care and Use Committee of the Catholic University of Korea (approval number, CUK-IACUC-2021-004; approval date, 21 March 2021) approved the study protocol. Male ICR mice (8 weeks of age, 27.4 ± 2.3 g) were purchased from Orient Bio Inc. (Seongnam, Korea). Mice were kept in plastic cages with unlimited access to a standard mouse diet (Orient Bio) and water before the experiments. For oral administration, mice were fasted for at least 12 h but allowed free access to water.
β-amanitin was dissolved in water and administered to mice by gavage at doses of 2 (n = 7), 5 (n = 9), and 10 (n = 7) mg/kg. Blood samples (approximately 15 μL) were collected from the retro-orbital plexus under light anesthesia with isoflurane at 0.033, 0.083, 0.166, 0.25, 0.5, 0.75, 1, 1.5, 2, 4, 6, and 8 h after drug administration. Plasma samples (5 μL each) were harvested by centrifugation at 13,000× g for 3 min at 4 °C and stored at −80 °C until analysis.
Concentrations of β-amanitin in biological samples were evaluated following our previous methodology. The standard calibration curves for β-amanitin in mouse plasma ranged from 0.5 to 500 ng/mL and were linear, with a correlation coefficient of 0.9952. The inter- and intra-day accuracy and precision fell within the acceptance criteria (3.1–14.6% of coefficients of variation (CVs) and 92.5–115.0% of accuracy). The extraction recovery and matrix effect of this analytical method were 82.8–88.9% and 93.0–98.6%.
An aliquot (5 μL) of plasma sample was mixed with 15 μL of 4′-hydroxydiclofenac (internal standard (IS), 5 ng/mL) in methanol and vortexed for 2 min. The mixture was centrifuged at 13,000× g at 4 °C for 5 min, and the supernatant was then transferred to an autosampler vial. An aliquot (5 μL) was injected into the LC-HRMS system for analysis.
The toxicokinetic parameters of β-amanitin were analyzed by non-compartmental analyses (WinNonlin, Pharsight; Mountain View, CA, USA) (Table 1). Data were expressed as mean ± standard deviations (SD). Comparisons of data between groups were performed using one-way ANOVA or Student t-test. Values of p < 0.05 were considered statistically significant.

[2] = Urinary and fecal excretion in mice; format: in vivo, male ICR mice; conditions: male mice, LC-HRMS, mean ± SD; for dose excreted: ICR, mouse
Description: β-amanitin in water was administered by iv bolus injection into the tail vein at 0.8 mg/kg dose (n = 4) and by oral gavage at 10 mg/kg dose (n = 3) to male mice. Mice were returned to metabolic cages, and urine and feces samples were collected individually at 0–6, 6–12, 12–24, 24–36, and 36–48 h. Urine and feces samples were stored at −80 °C until the analysis.
Each tissue and feces sample was homogenized in water (1:3, w/v). In total, 50 μL aliquots of urine, tissue homogenates, or feces homogenates were mixed with 150 μL of 4′-hydroxydiclofenac solution (IS, 5 ng/mL in methanol). The other steps were as described for plasma sample preparation.

[3] = oral 2, 5 and 10 mg/kg, range of the dose-group means

CC[C@H](C)[C@@H]1NC(=O)CNC(=O)[C@@H]2Cc3c([nH]c4cc(O)ccc34)[S@+]([O-])C[C@H](NC(=O)CNC1=O)C(=O)N[C@@H](CC(=O)O)C(=O)N1C[C@H](O)C[C@H]1C(=O)N[C@@H]([C@@H](C)[C@@H](O)CO)C(=O)N2 [β-amanitin]
Uptake into HEK293 control cells, β- versus α-amanitin (HEK293 control cells): greater than α-amanitin
Tmax, range over the oral doses ([1]; oral 2, 5 and 10 mg/kg, range of individual values): 10~120 min
Absolute (oral) bioavailability, range over the oral doses [1, 3]: 7.3–9.4%
t1/2, range over the oral doses [1, 3]: 105.0~132.0 min
bioavailability ([1]; oral gavage 2 mg/kg, n = 7): 9.4 ± 4.9%
Tmax ([1]; oral gavage 2 mg/kg, n = 7): 1 h
bioavailability ([1]; oral gavage 5 mg/kg, n = 9): 8.1 ± 4.3%
Tmax ([1]; oral gavage 5 mg/kg, n = 9): 1.5 h
bioavailability ([1]; oral gavage 10 mg/kg, n = 7): 7.3 ± 3.1%
Tmax ([1]; oral gavage 10 mg/kg, n = 7): 1 h
Cmax ([1]; oral gavage 2 mg/kg in water, n = 7): 67.1 ± 18.6 ng/mL
Cmax ([1]; oral gavage 5 mg/kg in water, n = 9): 140 ± 116 ng/mL
Cmax ([1]; oral gavage 10 mg/kg in water, n = 7): 360 ± 385 ng/mL
half-life ([1]; oral gavage 2 mg/kg, n = 7): 1.75 ± 1.57 h
AUC(0-inf) ([1]; oral gavage 2 mg/kg, n = 7): 191 ng·h/mL
AUC(0-t) ([1]; oral gavage 2 mg/kg, n = 7): 181 ng·h/mL
half-life ([1]; oral gavage 5 mg/kg, n = 9): 2.2 ± 0.838 h
AUC(0-inf) ([1]; oral gavage 5 mg/kg, n = 9): 438 ng·h/mL
AUC(0-t) ([1]; oral gavage 5 mg/kg, n = 9): 391 ng·h/mL
half-life ([1]; oral gavage 10 mg/kg, n = 7): 2.17 ± 1.31 h
AUC(0-inf) ([1]; oral gavage 10 mg/kg, n = 7): 810 ng·h/mL
AUC(0-t) ([1]; oral gavage 10 mg/kg, n = 7): 698 ng·h/mL
dose excreted ([2]; iv bolus 0.8 mg/kg, metabolic cages, urine 0–48 h, n = 4, read-out: Total urinary recovery (parent form) after 48 h): 52.3 ± 19.8%
dose excreted ([2]; oral gavage 10 mg/kg, feces 0–48 h, n = 3, read-out: Cumulative fecal excretion for 48 h): 72.4 ± 24.7%
dose excreted ([2]; oral gavage 10 mg/kg, urine 0–48 h, n = 3, read-out: Cumulative urinary excretion for 48 h): 2.4 ± 1.2%
Total fecal recovery over 48 h ([2]; iv bolus 0.8 mg/kg, feces 0–48 h, n = 4): 7.6% ± 1.2
Urinary recovery within 6 h ([2]; iv bolus 0.8 mg/kg, urine 0–6 h, n = 4): 40.9% ± 27.6
